# According to patent US8163756B2 (priority 2004, dated 2012):
# Read-outs that look alike come from different tables or passages of the source.
# Target: B-Raf(V599E) kinase (Homo sapiens, UniProt P15056, V600E)
# Test: B-Raf(V599E) kinase assay B1 (construct 1, MEK1 substrate, coupled spectrophotometric)
# Assay type: biochemical
# Experimental: The test compounds were incubated with the reaction mixtureat 30° C. for 2 h. […] The reaction rate was calculated using the […] time frame. […] IC50 values were calculated from a series of percent inhibition values determined at a range of inhibitor concentrations using software routines as implemented in the GraphPad Prism software package.
# [1] = Method B1, read-out: B-Raf Data
# Chain of B-Raf(V599E) kinase (P15056 with tags, fused parts or gaps V600E): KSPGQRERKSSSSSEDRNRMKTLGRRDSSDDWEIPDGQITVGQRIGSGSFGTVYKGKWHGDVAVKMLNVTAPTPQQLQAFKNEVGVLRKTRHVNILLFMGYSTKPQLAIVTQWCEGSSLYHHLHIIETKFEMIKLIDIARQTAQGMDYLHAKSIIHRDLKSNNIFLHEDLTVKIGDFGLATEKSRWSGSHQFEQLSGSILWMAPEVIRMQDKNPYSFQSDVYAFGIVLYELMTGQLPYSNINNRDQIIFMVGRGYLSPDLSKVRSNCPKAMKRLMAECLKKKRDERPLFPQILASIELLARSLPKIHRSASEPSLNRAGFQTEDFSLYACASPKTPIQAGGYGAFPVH
Compound,IC50 [nM],IC50 [1] [nM]
"CCOC(=O)c1cc(-n2nc(C(C)(C)C)cc2NC(=O)Nc2ccc(F)cc2F)cc2ccccc12 [Example 289, ethyl 3-(3-t-butyl-5-(3-(2,4-difluorophenyl)ureido)-1H-pyrazol-1-yl)-1-naphthoate]",28,–
CC(C)(C)c1cc(NC(=O)Nc2ccc(F)cc2)n(-c2ccc3c(c2)CCC(=O)N3)n1 [Example 317],36,–
"CC(C)(C)c1cc(NC(=O)Nc2cccc(F)c2F)n(-c2ccc(CO)cc2)n1 [Example 246, 1-{3-t-butyl-1-[4-(hydroxymethyl)phenyl]-1H-pyrazol-5-yl}-3-(2,3-difluoro-phenyl)urea]",39,–
"CC(C)(C)c1cc(NC(=O)Nc2ccc(F)cc2F)n(-c2ccc3c(c2)CCC(=O)N3)n1 [Example 321, 1-(3-t-butyl-1-(2-oxo-1,2,3,4-tetrahydro-quinolin-6-yl)-1H-pyrazol-5-yl)-3-(2,4-difluorophenyl)urea]",7.2,–
"CC(C)(C)c1cc(NC(=O)Nc2cc(F)c(F)cc2F)n(-c2cccc(CC(=O)O)c2)n1 [Example 370, 2-(3-(3-t-butyl-5-(3-(2,4,5-trifluorophenyl)-ureido)-1H-pyrazol-1-yl)phenyl)acetic acid]",8,–
"CC(C)(C)c1cc(NC(=O)Nc2cccc(Cl)c2Cl)n(-c2ccc(C(=N)NO)cc2)n1 [Example 260, 4-{3-t-butyl-5-[3-(2,3-dichlorophenyl)ureido]pyrazol-1-yl}-N-hydroxybenzamidine]",4,–
"CC(C)(C)c1cc(NC(=O)Nc2cccc(Cl)c2Cl)n(-c2ccc(C(=O)O)cc2)n1 [Example 244, 4-{3-t-butyl-5-[3-(2,3-dichlorophenyl)ureido]-1H-pyrazol-1-yl}benzoic acid]",38,–
"CC(C)(C)c1cc(NC(=O)Nc2ccc(Cl)cc2)n(-c2cccc(CN3C(=O)C(=O)N(c4ccccc4)C3=O)c2)n1 [Example 269, 1-(3-t-butyl-1-(3-[(2,4,5-trioxo-3-phenylimidazolidin-1-yl)methyl]phenyl}-1H-pyrazol-5-yl)-3-(4-chlorophenyl)urea]",279,–
"CC(C)(C)c1cc(NC(=O)Nc2cc(F)c(F)cc2F)n(-c2ccc3c(c2)CCC(=O)N3)n1 [Example 323, 1-(3-t-butyl-1-(2-oxo-1,2,3,4-tetrahydro-quinolin-6-yl)-1H-pyrazol-5-yl)-3-(2,4,5-trifluorophenyl)urea]",3.4,–
"CC(C)(C)c1cc(NC(=O)Nc2ccc3c(c2)OCO3)n(-c2cccc(CCN)c2)n1 [Example 253, 1-{1-[3-(2-aminoethyl)phenyl]-3-t-butyl-1 H-pyrazol-5-yl}-3-(benzo[d][1,3]dioxol-5-yl)urea]",75,–
"CC(C)(C)c1cc(NC(=O)Nc2cccc(Cl)c2Cl)n(-c2cccc(C(=O)O)c2)n1 [Example 226, 3-{3-t-butyl-5-[3-(2,3-dichlorophenyl)ureido]-1H-pyrazol-1-yl}benzoic acid]",20,–
"CC(C)(C)c1cc(NC(=O)Nc2cccc(F)c2F)n(-c2cc(CC(N)=O)c3ccccc3c2)n1 [Example 90, 1-(1-(4-(2-amino-2-oxoethyl)naphthalen-2-yl)-3-t-butyl-1H-pyrazol-5-yl)-3-(2,3-difluorophenyl)urea]",3.9,–
"CC(C(=O)O)c1cccc(-n2nc(C(C)(C)C)cc2NC(=O)Nc2cccc(Cl)c2Cl)c1 (centres unmarked) [Example 248, 2-(3-(3-t-butyl-5-(3-(2,3-dichlorophenyl)ureido)-1H-pyrazol-1-yl)phenyl)propanoic acid]",8.1,–
"CC(C)(C)c1cc(NC(=O)Nc2cccc(Cl)c2Cl)n(-c2ccc(CC(N)=O)cc2)n1 [Example 492, 1-(1-(4-(2-amino-2-oxoethyl)phenyl)-3-t-butyl-1H-pyrazol-5-yl)-3-(2,3-dichlorophenyl)urea]",6.4,–
"CC(C)(C)c1cc(NC(=O)NC2CCCCC2)n(-c2cccc(CC(N)=O)c2)n1 [Example 391, 1-{1-[3-(2-amino-2-oxoethyl)phenyl]-3-t-butyl-1H-pyrazol-5-yl}-3-cyclohexylurea]",37,–
"CC(C)(C)c1cc(NC(=O)Nc2ccc(F)cc2F)n(-c2ccc3[nH]c(=O)ccc3c2)n1 [Example 332, 1-(3-t-butyl-1-(2-oxo-1,2-dihydroquinolin-6-yl)-1H-pyrazol-5-yl)-3-(2,4-difluorophenyl)urea]",4.4,–
"CC(C)(C)c1cc(NC(=O)Nc2cccc(F)c2)n(-c2ccc3c(c2)CCNCC3)n1 [Example 335, 1-(3-t-butyl-1-(2,3,4,5-tetrahydro-1H-benzo[d]azepin-7-yl)-1 H-pyrazol-5-yl)-3-(3-fluorophenyl)urea]",104,–
"CC(C)(C)c1cc(NC(=O)Nc2ccccc2)n(-c2cc(CO)c3ccccc3c2)n1 [Example 290, 1-[3-t-butyl-1-(4-(hydroxymethyl)naphthalen-2-yl)-1H-pyrazol-5-yl]-3-phenylurea]",12,–
CC(C)(C)c1cc(NC(=O)Nc2cccc(F)c2F)n(-c2cc(CO)c3ccccc3c2)n1 [Example 294],3.3,–

Compound,IC50 [nM],IC50 [1] [nM]
"COc1cccc(-n2nc(C(C)(C)C)cc2NC(=O)Nc2ccc3c(c2)OCO3)c1 [Example 234, 1-(benzo[d][1,3]dioxo-5-yl)-3-(3-t-butyl-1-(3-methoxyphenyl)-1H-pyrazol-5-yl)urea]",32,–
"CC(C)(C)c1cc(NC(=O)Nc2ccccc2)n(-c2cc(CC(N)=O)c3ccccc3c2)n1 [Example 88, 1-(1-(4-(2-amino-2-oxoethyl)naphthalen-2-yl)-3-t-butyl-1H-pyrazol-5-yl)-3-phenylurea]",12,–
"CC(C)NC(=O)Cc1cccc(-n2nc(C(C)(C)C)cc2NC(=O)Nc2cccc(Cl)c2Cl)c1 [Example 441, 1-(3-t-butyl-1-(3-(2-(isopropylamino)-2-oxoethyl)phenyl)-1H-pyrazol-5-yl)-3-(2,3-dichlorophenyl)urea]",6.4,–
"CC(C)(C)c1cc(NC(=O)Nc2cccc(Cl)c2Cl)n(-c2cccc(CC(=O)N3CC[C@@H](O)C3)c2)n1 [Example 443, 1-(3-t-butyl-1-(3-(2-((R)-3-hydroxypyrrolidin-1-yl)-2-oxoethyl)phenyl)-1H-pyrazol-5-yl)-3-(2,3-dichlorophenyl)urea]",9,–
"CC(C)(C)c1cc(NC(=O)Nc2ccc3c(c2)OCO3)n(-c2cccc(CC(=O)O)c2)n1 [Example 372, 2-(3-{5-[3-(benzo[1,3]dioxol-5-yl)ureido]-3-t-butyl-1H-pyrazol-1-yl}phenyl)acetic acid]",27,–
"CC(C)(C)c1cc(NC(=O)Nc2ccccc2F)n(-c2ccc3c(c2)C(=O)NCC3)n1 [Example 312, 1-(3-t-butyl-1-(1-oxo-1,2,3,4-tetrahydroiso-quinolin-7-yl)-1H-pyrazol-5-yl)-3-(2-fluorophenyl)urea]",35,–
"CC(C)(C)c1cc(NC(=O)Nc2ccc(Cl)cc2)n(-c2cc(CCO)c3ccccc3c2)n1 [Example 302, 1-{5-t-butyl-2-[4-(2-hydroxyethyl)naphthalen-2-yl]-2H-pyrazol-3-yl}-3-(4-chlorophenyl)urea]",13,–
"COc1cccc(-n2nc(C(C)(C)C)cc2NC(=O)Nc2cccc(Cl)c2)c1 [Example 231, 1-(3-t-butyl-1-(3-methoxyphenyl)-1H-pyrazol-5-yl)-3-(3-chlorophenyl)urea]",27,–
"CC(C)(C)c1cc(NC(=O)Nc2ccc3c(c2)OCO3)n(-c2cccc(CC(N)=O)c2)n1 [Example 395, 1-{1-[3-(2-amino-2-oxoethyl)phenyl]-3-t-butyl-1H-pyrazol-5-yl}-3-(benzo[d][1,3]dioxol-5-yl)urea]",50,–
"O=C(O)Cc1cccc(-n2nc(-c3cccs3)cc2NC(=O)Nc2cccc(Cl)c2Cl)c1 [Example 366, 2-(3-(5-(3-(2,3-dichlorophenyl)-ureido)-3-(thiophen-2-yl)-1H-pyrazol-1-yl)phenyl)acetic acid]",–,157
"CC(C)(C)c1cc(NC(=O)NC2CCCCC2)n(-c2ccc3c(c2)CNCC3)n1 [Example 327, 1-(3-t-butyl-1-(1,2,3,4-tetrahydroisoquinolin-7-yl)-1H-pyrazol-5-yl)-3-cyclohexylurea]",330,–
"CC(C)(C)c1cc(NC(=O)Nc2ccc(F)c(F)c2F)n(-c2ccc3c(c2)CCC(=O)N3)n1 [Example 322, 1-(3-t-butyl-1-(2-oxo-1,2,3,4-tetrahydro-quinolin-6-yl)-1H-pyrazol-5-yl)-3-(2,3,4-trifluorophenyl)urea]",4.1,–
"NC(=O)Cc1cccc(-n2nc(-c3cccs3)cc2NC(=O)Nc2cccc(Cl)c2Cl)c1 [Example 445, 1-(1-(3-(2-amino-2-oxoethyl)phenyl)-3-(thiophen-2-yl)-1H-pyrazol-5-yl)-3-(2,3-dichlorophenyl)urea]",–,838
"CNCCc1cccc(-n2nc(C(C)(C)C)cc2NC(=O)Nc2cccc(Cl)c2Cl)c1 [Example 258, 1-(3-t-butyl-1-(3-(2-(methylamino)ethyl)phenyl)-1H-pyrazol-5-yl)-3-(2,3-dichlorophenyl)urea]",3.4,–
"CC(C)(C)c1cc(NC(=O)Nc2cccc(F)c2F)n(-c2ccc3[nH]c(=O)ccc3c2)n1 [Example 329, 1-(3-t-butyl-1-(2-oxo-1,2-dihydroquinolin-6-yl)-1H-pyrazol-5-yl)-3-(2,3-difluorophenyl)urea]",4.2,–
"CC(C)(C)c1cc(NC(=O)NC2CCCCC2)n(-c2cccc(-c3cccnc3)c2)n1 [Example 274, 1-[5-t-butyl-2-(3-pyridin-3-yl-phenyl)-2H-pyrazol-3-yl]-3-cyclohexyl-urea]",134,–
"CC(C)(C)c1cc(NC(=O)Nc2cccc(Oc3ccccc3)c2)n(-c2cccc(CC(N)=O)c2)n1 [Example 433, 1-(1-(3-(2-amino-2-oxoethyl)phenyl)-3-t-butyl-1H-pyrazol-5-yl)-3-(3-phenoxyphenyl)urea]",5.1,–
"CC(C)(C)c1cc(NC(=O)Nc2ccccc2F)n(-c2cccc(CC(=O)O)c2)n1 [Example 371, 2-(3-(3-t-butyl-5-(3-(2-fluorophenyl)-ureido)-1H-pyrazol-1-yl)phenyl)acetic acid]",10,–
"CCOC(=O)Cc1cccc(-n2nc(C(C)(C)C)cc2NC(=O)Nc2ccc3c(c2)OCO3)c1 [Example 247, ethyl 2-(3-{5-[3-(benzo[d][1,3]dioxol-5-yl)ureido]-3-t-butyl-1H-pyrazol-1-yl}phenyl)-acetate]",70,–
